Experimental data published in patent US6518302B1, “Remedies” (Takara Shuzo Co., Ltd., priority 1999, dated 2003).
Like-named read-outs stand apart in the source and are kept apart here. One block for each compound: values may come before it.

What was measured:
[1] = system: HL-60 cells (ATCC CCL-240); experiment: Proliferation of HL-60 cells with or without hydroxyurea G1 arrest (WST-1); type: cell-based, Human; settings: 48 hours
Experimental: HL-60 cells (ATCC CCL-240) were suspended in RPMI 1640 medium (Bio Whittaker, 12-702F) containing 10% fetal calf serum (Gibco) and 100 μM hydroxyurea at a concentration of 5×10^5 cells/ml. 20 ml of the suspension was added to a 10-cm Petri dish. The dish was incubated at 37° C. overnight in the presence of 5% CO2 to make the cells arrest at G1 phase. The cells were collected by centrifugation and resuspended in RPMI 1640 medium containing 10% fetal calf serum (Gibco) and 100 μM hydroxyurea at a concentration of 5×10^5 cells/ml. 5 ml of the suspension was added to each well of a 6-well microtiter plate. On the other hand, as cells without the treatment with hydroxyurea, HL-60 cells were suspended in RPMI 1640 medium containing 10% fetal calf serum (Gibco) at a concentration of 1×10^5 cells/ml. 5 ml of the suspension was added to each well of a 6-well microtiter plate. 50 μl of a solution containing DGE at a concentration of 30, 22.5, 15 or 7.5 mM in water, 25 μl of a solution containing the compound (7) at a concentration of 60, 45, 30 or 15 mM in dimethyl sulfoxide, or 25 μl of a solution containing the compound (17) at a concentration of 100, 75, 50 or 25 mM in dimethyl sulfoxide was added to the well containing the cells treated with hydroxyurea. 50 μl of a solution containing DGE at a concentration of 8, 6, 4 or 2 mM in water, 25 μl of a solution containing the compound (7) at a concentration of 30, 22.5, 15 or 7.5 mM in dimethyl sulfoxide, or 25 μl of a solution containing the compound (17) at a concentration of 80, 60, 40 or 20 mM in dimethyl sulfoxide was added to the well containing the cells without the treatment with hydroxyurea. The plate was incubated for additional 48 hours. Cells collected by centrifuging the culture were suspended in 5 ml of fresh RPMI 1640 medium containing 10% fetal calf serum (Gibco). 100 μl of the suspension was used for measuring viable cell number using Premix WST-1 Cell Proliferation Assay System (Takara Shuzo, MK400).
For each of the samples, the concentration at which 50% of the proliferation is inhibited (IC50) for the cells treated with hydroxyurea was higher than that for the cells without the treatment with hydroxyurea. Table 3 summarizes IC50 (μM) for each of the samples. […] Since most of cells in a living body are arrested at G1 phase, it is considered that DGE and R-AhGal compounds (precursors of DGE) are agents less toxic to a living body.

[2] = system: HL-60 (ATCC CCL-240) cells; experiment: Viability of HL-60 cells by Trypan Blue staining; type: cell-based; settings: Homo sapiens, read-out: Viability50, concentration that results in a viability of 50%
Experimental: HL-60 (ATCC CCL-240) cells were cultured at 37° C. in RPMI 1640 medium (Bio Whittaker) containing 10% fetal calf serum (JRH) which had been treated at 56° C. for 30 minutes and suspended in RPMI 1640 medium at a concentration of 2.5×10^5 cells/4.5 ml.
[…] each of aqueous solutions of the compound (2) at a concentration of 10, 50 or 100 mM, the compound (7) at a concentration of 500, 1000 or 1500 μM, the compound (9) at a concentration of 750, 1500 or 3000 μM, the compound (11) at a concentration of 750, 1500 or 3000 μM, or the compound (14) at a concentration of 750, 1500 or 3000 μM was added to 4.5 ml of the suspension. The mixtures were incubated at 37° C. for 24 hours in the presence of 5% CO2.
A portion of the cells cultured for 24 or 48 hours as described in Example 4 was stained with 0.4% Trypan Blue and examined under an optical microscope. The number of viable cells which were not stained and the number of dead cells which were stained blue were counted. The concentration of each of the compounds (2), (7), (9), (11) and (14) that results in a viability of 50% (Viability50 mM) was determined.

[3] = system: Human promyelocytic leukemia HL-60 cells; experiment: Antiproliferation activity against HL-60 cells (MTT method); type: cell-based; settings: 48 hour incubation
Experimental: Human promyelocytic leukemia HL-60 cells (ATCC CCL-240) were cultured at 37° C. in RPMI 1640 medium (Gibco) containing 10% of fetal calf serum (JRH Bioscience) which had been treated at 56° C. for 30 minutes, and suspended in the same medium at a concentration of 5000 cells/90 μl. Each 90 μl portion of the suspension was distributed into each well of a 96-well plate (Falcon). To the suspension in each well was added 10 μl of one the following samples, and incubated at 37° C. in the presence of 5% CO2. The samples were 2-, 4-, 8-, 16-, 32-, 64- or 128-dilutions of filter-sterilized 200 mM aqueous solution of the compound (2) obtained in Example 1, 50 mM aqueous solution of the compound (7), 50 mM aqueous solution of the compound (9), 100 mM aqueous solution of the compound (11), 100 mM aqueous solution of the compound (14), 20 mM aqueous solution of the compound (17), 12.5 mM aqueous solution of the compound (19) or 12.5 mM aqueous solution of the compound (21) with sterile water, as well as water. After 48 hour from the initiation of the incubation, the numbers of viable cells calculated based on the absorbance measured according to the MTT method as described in “Apoptosis Jikken Protocol” (Syuzyun-sha, Seiichi Tanuma, ed., pp. 156 (1994)) were compared each other.

[4] = system: heme oxygenase 1 protein in RAW264.7 cells; experiment: Heme oxygenase 1 induction (Western blot); type: cell-based; parameters: key: − represents no band observed; increase in the intensity of the band is represented as follows: +−<+<++; increase in the intensity of the band is represented as follows: +−<+<++; increase in the intensity of the band is represented as follows: +−<+<++; settings: 12 hours, positive control: 5 μl of 3 mM solution in dimethyl sulfoxide added to 5 ml
Experimental: RAW264.7 cells (ATCC TIB 71) were suspended in Dulbecco's modified Eagle's medium (Bio Whittaker, 12-604F) containing 10% fetal calf serum (Gibco) at a concentration of 3×10^5 cells/ml. 5 ml of the suspension was added to each well of a 6-well microtiter plate and the plate was incubated at 37° C. overnight in the presence of 5% CO2. 50 μl of a solution containing the compound (11) or the compound (14) at a concentration of 10 mM or 5 mM in water, 5 μl of a solution containing the compound (7) at a concentration of 50 mM or 25 mM in dimethyl sulfoxide, or 5 μl of a solution containing the compound (17) at a concentration of 100 mM or 50 mM in dimethyl sulfoxide was added to the well. The plate was incubated for 12 hours. A positive control for heme oxygenase 1 induction in which 5 μl of 3 mM solution of 15-deoxy-Δ12,14 prostaglandin J2 (Cayman Chemical, 18570) in dimethyl sulfoxide was added, and a negative control in which water was added were provided. The cells were recovered by detaching the cells from the plate using a scraper and suspended in 0.1 M tris-HCl buffer (pH 7.5) containing 0.05 mM pepstatin A (Sigma, P5318), 0.2 mM leupeptin (Sigma, L2884), 1 mM phenylmethylsulfonyl fluoride (Nacalai Tesque, 273-27), 10 mM ethylenediaminetetraacetic acid disodium salt and 0.1% Triton X-100. A supernatant obtained by centrifuging the suspension after freezing and thawing was used as a protein fraction. The content of protein in the protein fraction was determined using Micro BCA Protein Assay Reagent (a product of Pierce sold by Takara Shuzo, P7411). A sample from the protein fraction prepared as described above was mixed with an equal volume of 0.125 M tris-hydrochloride buffer (pH 6.8) containing 4% sodium lauryl sulfate (SDS), 2% 2-mercaptoethanol, 0.001% Bromophenol Blue and 20% glycerol. After treatment at 100° C. for 5 minutes, a portion corresponding to 10 μg of protein was loaded on 12.5% SDS-polyacrylamide gel and electrophoresed at a constant current of 20 mA. After electrophoresis, the gel was transferred to a PVDF membrane (Millipore, IPVH000 10) at a constant voltage of 15 V for 25 minutes using a blotting buffer (containing 48 mM tris, 39 mM glycine, 20% methanol and 0.0375% SDS) and Trans-Blot SD Cell Semi-Dry blotting apparatus (Bio-Rad) according to the attached protocol. After transferring, the PVDF membrane was blocked in a solution of Block Ace (Dainippon Pharmaceutical, UK-B25) at 4 C overnight. After blocking, the membrane washed three times in phosphate buffered saline containing 0.1% Tween 20 for 15 minutes with gentle shaking. The membrane was reacted in phosphate buffered saline containing 10% Block Ace, 0.1% Tween 20 and 200 ng/ml of anti-heme oxygenase 1 antibody (N-19; Santa Cruz, sc-7696) at room temperature for 1 hour with gentle shaking, and then washed three times in phosphate buffered saline containing 0.1% Tween 20 for 15 minutes with gentle shaking. The membrane was reacted in phosphate buffered saline containing 10% Block Ace, 0.1% Tween 20 and 0.1% peroxidase-labeled rabbit anti-goat IgG (H+L) antibody (Zymed, 61-1620) at room temperature for 1 hour with gentle shaking, and then washed five times in phosphate buffered saline containing 0.1% Tween 20 for 15 minutes with gentle shaking. The PVDF membrane was stained using Western Blot Chemiluminescence Reagent Plus (a product of NEN Life Science Products sold by Daiichi Pure Chemicals, NEL103) according to the attached protocol and exposed to an X-ray film (Kodak, CAT165 1454). After exposure, the film was developed using FPM800 (Fuji Film).
The intensity of the band depended on the concentration of the sample. In the table, the intensity of the band for heme oxygenase 1 protein is expressed by the mark +. Specifically, − represents no band observed, and increase in the intensity of the band is represented as follows: +−<+<++.

IC50 ([1]; HL-60 cells arrested at G1 phase with 100 μM hydroxyurea, read-out: IC50, Cells treated with hydroxyurea): 101 µM
IC50 ([1]; HL-60 cells, read-out: IC50, Cells without treatment with hydroxyurea): 49.5 µM
Structure (SMILES): O=C1C=CC(CO)OC1O [DGE, L-glycero-1,5-epoxy-1αβ,6-dihydroxy-cis-hex-3-en-2-one, reference compound]

IC50 ([2]; 24 hours): 17200 µM
IC50 ([2]; 48 hours): 189 µM
IC50 ([3]; Homo sapiens, HL-60 cells, read-out: IC50, concentration at which 50% of the proliferation is inhibited): 113 µM
Structure (SMILES): CC(=O)OCC1OC(OC2C(O)COC2C(O)C(O)O)C(OC(C)=O)C(OC(C)=O)C1OC(C)=O [Compound (9), 4-O-(β-D-2,3,4,6-tetra-O-acetylgalactopyranosyl)-3,6-anhydro-D-galactose]
antiproliferation activity against HL-60 cells [3]: exhibited antiproliferation activities

Structure (SMILES): CCCCC/C=C/C=C1/C(=O)C=C[C@@H]1C/C=C\CCCC(=O)O [15-deoxy-Δ12,14 prostaglandin J2, reference compound]
Intensity of band for heme oxygenase 1 protein [4]: +
